How the values were obtained:
[1] = tested on: NCI-60 human cancer cell lines; assay: NCI-60 screen, full panel summary; type: cell-based; settings: 10 µM single dose; for Mean Growth Percent: all NCI-60 cell lines; for inhibition at 10 µM: Homo sapiens, read-out: Range of Growth Inhibition on All Cells
Method: In a comprehensive test, compounds were assayed at a single dose concentration (10^−5 M) in the full panel of NCI-60 cancer cell lines.

NCI-H226 = assay: NCI-60 antiproliferative screen (SRB); type: cell-based, human; settings: Homo sapiens; 10 µM single dose, 48 h; NCI-H226 (NSCLC); read-out: Growth inhibition (%)

Row | SMILES | Positive Cytostatic Effect (cell lines with percent growth from 0 to 50 / total number of cell lines) [1] | Positive Cytotoxic Effect (cell lines with percent growth of <0 / total number of cell lines) [1] | Sensitive/Total Cell Lines [1] | antiproliferative activity (in words) [1] | Mean Growth Percent [1] | inhibition at 10 µM [1] [%] | inhibition at 10 µM (NCI-H226) [%] | The Most Sensitive Cell Line [1] | number of cell lines with cytostatic effects [1] | number of cell lines with cytotoxic effects [1]
1 | O=C1Nc2ccccc2C1=Cc1ccc(OCc2ccccc2)cc1 (mixture of isomers) [Compound 5a, (E/Z)-3-[4-(Benzyloxy)benzylidene] indolin-2-one] | 0/59 | 0/59 | 0/59 | weak antiproliferative activity | −1.00 | -16.2 to 15.8 | 4.45 | – | – | –
2 | O=C1Nc2ccc(F)cc2C1=Cc1ccc(OCc2ccccc2)cc1 (mixture of isomers) [Compound 5b, (E/Z)-3-[4-(Benzyloxy)benzylidene]-5-fluoroindolin-2-one] | 0/57 | 0/57 | 0/57 | weak antiproliferative activity | 1.62 | -10.8 to 9.53 | 9.53 | – | – | –
3 | O=C1Nc2ccc(Cl)cc2C1=Cc1ccc(OCc2ccccc2)cc1 (mixture of isomers) [Compound 5c, (E/Z)-3-[4-(Benzyloxy)benzylidene]-5-chloroindolin-2-one] | 0/59 | 0/59 | 0/59 | weak antiproliferative activity | 0.10 | -13 to 23.9 | 11.1 | – | – | –
4 | O=C1Nc2cc(Cl)ccc2C1=Cc1ccc(OCc2ccccc2)cc1 (mixture of isomers) [Compound 5d, (E/Z)-3-[4-(Benzyloxy)benzylidene]-6-chloroindolin-2-one] | 0/59 | 0/59 | 0/59 | weak antiproliferative activity | 0.13 | -54 to 38.4 | 7.13 | – | – | –
5 | O=C1Nc2ccccc2C1=Cc1ccc(OCc2ccccn2)cc1 (mixture of isomers) [Compound 5e, (E/Z)-3-[4-(Pyridin-2-ylmethoxy]benzylidene) indolin-2-one] | 11/56 | 0/56 | 11/56 | – | 33.37 | – | 40.8 | HOP-92 | – | –
6 | O=C1Nc2ccc(F)cc2C1=Cc1ccc(OCc2ccccn2)cc1 (mixture of isomers) [Compound 5f, (E/Z)-5-fluoro-3-[4-(pyridin-2-ylmethoxy)benzylidene]indolin-2-one] | 3/59 | 0/59 | 3/59 | – | 13.74 | – | 6.67 | NCI-H522 | – | –
7 | O=C1Nc2ccc(Cl)cc2C1=Cc1ccc(OCc2ccccn2)cc1 (mixture of isomers) [Compound 5g, (E/Z)-5-Chloro-3-[4-(pyridin-2-ylmethoxy)benzylidene] indolin-2-one] | 17/59 | 1/59 | 18/59 | – | 38.63 | – | 98.7 | OVCAR-4 | 17 | 1
8 | O=C1Nc2cc(Cl)ccc2C1=Cc1ccc(OCc2ccccn2)cc1 (mixture of isomers) [Compound 5h, (E/Z)-6-Chloro-3-[4-(pyridin-2-ylmethoxy)benzylidene]indolin-2-one] | 11/56 | 0/56 | 11/56 | – | 30.77 | – | 48.6 | OVCAR-4 | – | –
9 | O=C1Nc2ccccc2C1=Cc1ccc(OCc2cccnc2)cc1 (mixture of isomers) [Compound 5i, (E/Z)-3-[4-(Pyridin-3-ylmethoxy)benzylidene]indolin-2-one] | 17/56 | 0/56 | 17/56 | – | 34.95 | – | 38.2 | KM12 | – | –
10 | O=C1Nc2ccc(F)cc2C1=Cc1ccc(OCc2cccnc2)cc1 (mixture of isomers) [Compound 5j, (E/Z)-5-Fluoro-3-[4-(pyridin-3-ylmethoxy)benzylidene]indolin-2-one] | 32/56 | 1/56 | 33/56 | – | 53.95 | – | 55.6 | SK-MEL-5 | 32 | 1
11 | O=C1Nc2ccc(Cl)cc2C1=Cc1ccc(OCc2cccnc2)cc1 (mixture of isomers) [Compound 5k, (E/Z)-5-Chloro-3-[4-(pyridin-3-ylmethoxy)benzylidene] indolin-2-one] | 5/56 | 0/56 | 5/56 | – | 14.49 | – | 11.8 | – | – | –
12 | O=C1Nc2ccccc2C1=Cc1ccc(OCc2ccncc2)cc1 (mixture of isomers) [Compound 5m, (E/Z)-3-[4-(Pyridin-4-ylmethoxy)benzylidene] indolin-2-one] | 14/59 | 0/59 | 14/59 | – | 38.04 | – | 42.4 | MDA-MB-468 | 14 | –
13 | O=C1Nc2ccc(F)cc2C1=Cc1ccc(OCc2ccncc2)cc1 (mixture of isomers) [Compound 5n, (E/Z)-5-Fluoro-3-[4-(pyridin-4-ylmethoxy)benzylidene] indolin-2-one] | 26/59 | 0/59 | 26/59 | – | 46.02 | – | 44.5 | SK-MEL-5 | 26 | –
14 | O=C1Nc2ccc(Cl)cc2C1=Cc1ccc(OCc2ccncc2)cc1 (mixture of isomers) [Compound 5o, (E/Z)-5-Chloro-3-[4-(pyridin-4-ylmethoxy)benzylidene] indolin-2-one] | 28/59 | 0/59 | 28/59 | – | 47.19 | – | 38.3 | MCF7 | 28 | –
15 | O=C1Nc2cc(Cl)ccc2C1=Cc1ccc(OCc2ccncc2)cc1 (mixture of isomers) [Compound 5p, (E/Z)-6-Chloro-3-[4-(pyridin-4-ylmethoxy)benzylidene]indolin-2-one] | 21/59 | 0/59 | 21/59 | – | 41.27 | – | 49.5 | SF-539 | 21 | –

Reference: paper PMC11124822, “Discovery and Anticancer Screening of Novel Oxindole-Based Derivative Bearing Pyridyl Group as Potent and Selective Dual FLT3/CDK2 Kinase Inhibitor” (Pharmaceuticals, 2024)
